Experiments:
[1] = system: CD68 positive cells; experiment: leukocyte infiltration after SCI (CD68 positive cells); assay type: in vivo, rat; conditions: for Number of infiltrated leukocytes (mean ± SE; n = 8): 15 mg/kg i.v. then s.c.
Description: (§1) Adult Sprague-Dawley rats (females) weighing 240-260 g were maintained in the animal facilities under standard housing conditions (22±2° C., 65% humidity, artificial light from 06.00-20.00 h). A standard dry diet and water were available ad libitum. SCI in the rat was performed as previously reported (Gorio A. et al. Proc. Natl. Acad. Sci. USA 99, 9450-9455, 2002). The lesioning apparatus is computer controlled and free of the influence of gravity force. The force applied was 1N per 1 second. Leukocyte infiltration was quantitatively estimated by CD68 positive cells 1 and 7 days after SCI. […] The following days the animals were treated s.c. at 8 am and 5 pm until the 7th day after SCI. Animals were treated with compound of formula (III) (8 mg/kg) by i.v. injection within 30 minutes after SCI, then s.c. 24 hours after SCI. The following days the animals were treated s.c. every 36 hours until the 7th day after SCI.

[2] = system: oligodendrocytes; experiment: apoptosis of oligodendrocytes after SCI (TUNEL); assay type: in vivo, rat; conditions: 28 days after SCI; for inhibition of oligodendrocyte apoptosis: vs saline; for Number of oligodendrocyte apoptic nuclei (mean ± SE; n = 12): gracilis and cuneatus fascicle, saline 14.9 ± 2
Description: Adult Sprague-Dawley rats (females) weighing 240-260 g were maintained in the animal facilities under standard housing conditions (22±2° C., 65% humidity, artificial light from 06.00-20.00 h). A standard dry diet and water were available ad libitum. SCI in the rat was performed as previously reported (Gorio A. et al. Proc. Natl. Acad. Sci. USA 99, 9450-9455, 2002). The lesioning apparatus is computer controlled and free of the influence of gravity force. The force applied was 1N per 1 second. Apoptosis of oligodendrocytes was determined at the level of the gracilis and cuneatus fascicle (3 mm rostrally from the site of contusion injury) 28 days after SCI using the terminal deoxynucleotidyltransferase-mediated dUTP and labeling (TUNEL) methodology. […] The following days the animals were treated s.c. at 8 am and 5 pm until the 7th day after SCI. Animals were treated with compound of formula (III) (8 mg/kg) by i.v. injection within 30 minutes after SCI, then s.c. 24 hours after SCI. The following days the animals were treated s.c. every 36 hours until the 7th day after SCI.

[3] = system: SCI in the rat; experiment: extension of post-traumatic cavity / spared tissue at lesion site (histology); assay type: in vivo; conditions: 28 days after SCI; for Percentage of spared tissue at lesion site (mean ± SE; n = 12), Lesion Epicenter: saline 39.8 ± 3.9; for Percentage of spared tissue at lesion site (mean ± SE; n = 12), Cavity Volume: saline 46.6 ± 3.1
Description: as §1, with “Extension of post-traumatic cavity” for “Leukocyte infiltration”, “performed” for “quantitatively estimated”, “classical histological techniques 28” for “CD68 positive cells 1 and 7”

[4] = system: SCI in the rat; experiment: free locomotion test (BBB scale) after SCI, i.v./s.c. injection; assay type: in vivo; conditions: i.v. within 30 minutes after SCI then s.c. until 7th day; (II) 15 mg/kg, (III) 8 mg/kg; FIG. 1 and 2
Description: Adult Sprague-Dawley rats (females) weighing 240-260 g were maintained in the animal facilities under standard housing conditions (22±2° C., 65% humidity, artificial light from 06.00-20.00 h). A standard dry diet and water were available ad libitum. […] The force applied was 1N per 1 second. Recovery from hind limb disability was evaluated by means of “free locomotion test” performed 24 hours, 4, 7, 11, 15, 19 and 27 days after SCI. The “free locomotion test” allows the detection of feet positioning, and joint rotation. The quality of functional recovery is quantitatively expressed according to the “BBB scale” developed at the Ohio University. Such a test allows the quantification of rat hind limb free locomotion deficits by observing their movements in an open space free of obstacles: 0—Lesioned rat cannot move either limbs 1—Small movement of a joint (heap or knee) From 2 to 6—Movement in progressive extension of the 3 joints 7—Good movement of the 3 joints 8—Animals walk without plantar support of the weight From 9 to 11—Animals walk from occasionally to progressively frequent with plantar support of the weight. 12—Occasional coordination of hind limbs and forelimbs during walk From 13 to 14—Progressive coordination with the forelimbs. 15—Consistent plantar support of weight and coordination during walk; occasional movement of fingers during advancement. […]

CC(C)Cc1ccc([C@@H](C)C(=O)NS(C)(=O)=O)cc1 [compound of formula (II), (R)-ibuprofen methanesulfonamide]
Number of infiltrated leukocytes (mean ± SE; n = 8) ([1]; Epicenter, 1 day from SCI, saline 125 ± 36): 24 ± 3
Number of infiltrated leukocytes (mean ± SE; n = 8) ([1]; Epicenter, 7 days from SCI, saline 235 ± 54): 19 ± 3
Number of infiltrated leukocytes (mean ± SE; n = 8) ([1]; Periphery, 1 day from SCI, saline 56 ± 13): 3 ± 1
Number of infiltrated leukocytes (mean ± SE; n = 8) ([1]; Periphery, 7 days from SCI, saline 99 ± 32): 4 ± 2
inhibition of leukocyte infiltration ([1]; at 24 hours and 7 days after SCI, vs saline): 80%
inhibition of oligodendrocyte apoptosis [2]: 85%
Number of oligodendrocyte apoptic nuclei (mean ± SE; n = 12) [2]: 2.1 ± 1.2
tissue damage at the site of the lesion and extension of post-traumatic cavity, in words [3]: significantly reduced tissue damage
Percentage of spared tissue at lesion site (mean ± SE; n = 12), Lesion Epicenter [3]: 48.9 ± 3.0 %
Percentage of spared tissue at lesion site (mean ± SE; n = 12), Cavity Volume [3]: 58.2 ± 2.9 %

C[C@@H](C(=O)NS(C)(=O)=O)c1ccc(OS(=O)(=O)C(F)(F)F)cc1 [compound of formula (III), R-2-[(4′-trifluoromethanesulphonyloxy)phenyl]-N-methanesulfonyl propionamide]
functional hind limb recovery (motor score, BBB scale), in words [4]: significantly promoted functional hind limb recovery
inhibition of oligodendrocyte apoptosis [2]: 65%
Number of oligodendrocyte apoptic nuclei (mean ± SE; n = 12) [2]: 5.2 ± 3.8
tissue damage at the site of the lesion and extension of post-traumatic cavity, in words [3]: significantly reduced tissue damage
Percentage of spared tissue at lesion site (mean ± SE; n = 12), Lesion Epicenter [3]: 49.7 ± 4.2 %
Percentage of spared tissue at lesion site (mean ± SE; n = 12), Cavity Volume [3]: 60.4 ± 4.3 %
